From ChEMBL document CHEMBL5252515, “Discovery of 6-Amino-2-{[(1S)-1-methylbutyl]oxy}-9-[5-(1-piperidinyl)pentyl]-7,9-dihydro-8H-purin-8-one (GSK2245035), a Highly Potent and Selective Intranasal Toll-Like Receptor 7 Agonist for the Treatment of Asthma” (J Med Chem, 2016) come the findings set out here.

Molecules are shown by their SMILES. Calls of active or inactive are those of the source. The calls are words filed in the database; no cut-off is given here.

One assay deals with T1, Toll-like receptor 7 (Homo sapiens, UniProt Q9NYK1).
T1 sequence (Q9NYK1 whole entry): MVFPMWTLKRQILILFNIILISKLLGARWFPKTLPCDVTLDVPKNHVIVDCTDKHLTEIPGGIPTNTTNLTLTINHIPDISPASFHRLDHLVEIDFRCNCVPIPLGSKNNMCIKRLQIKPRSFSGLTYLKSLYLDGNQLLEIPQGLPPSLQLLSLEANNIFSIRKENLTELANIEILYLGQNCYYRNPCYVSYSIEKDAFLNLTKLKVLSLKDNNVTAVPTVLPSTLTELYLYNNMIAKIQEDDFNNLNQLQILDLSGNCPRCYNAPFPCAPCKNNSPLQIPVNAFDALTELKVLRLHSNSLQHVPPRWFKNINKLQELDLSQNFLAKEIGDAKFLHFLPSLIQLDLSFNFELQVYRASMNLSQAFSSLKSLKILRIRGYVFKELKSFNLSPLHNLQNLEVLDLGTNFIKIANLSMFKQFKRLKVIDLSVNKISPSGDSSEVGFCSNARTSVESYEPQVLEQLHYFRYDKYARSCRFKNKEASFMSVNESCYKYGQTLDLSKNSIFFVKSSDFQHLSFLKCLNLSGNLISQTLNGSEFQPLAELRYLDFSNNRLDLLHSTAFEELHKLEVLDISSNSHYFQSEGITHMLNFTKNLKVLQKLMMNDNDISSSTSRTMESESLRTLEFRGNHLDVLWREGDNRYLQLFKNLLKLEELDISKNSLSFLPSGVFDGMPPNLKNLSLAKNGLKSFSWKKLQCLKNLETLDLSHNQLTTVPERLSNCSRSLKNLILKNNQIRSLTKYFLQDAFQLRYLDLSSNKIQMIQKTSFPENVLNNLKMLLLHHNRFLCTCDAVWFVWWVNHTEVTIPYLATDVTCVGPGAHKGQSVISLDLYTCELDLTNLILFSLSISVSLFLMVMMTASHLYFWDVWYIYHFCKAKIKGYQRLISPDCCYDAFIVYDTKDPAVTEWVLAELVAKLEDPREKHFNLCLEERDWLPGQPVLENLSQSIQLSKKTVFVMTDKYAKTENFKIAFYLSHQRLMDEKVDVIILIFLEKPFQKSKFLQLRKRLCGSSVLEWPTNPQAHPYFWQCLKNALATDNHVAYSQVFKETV
Nature of the assay: Agonist activity at TLR7 (unknown origin) expressed in human U2OS cells assessed as induction of NF-kappaB driven TNFalpha production by luciferase reporter assay. Format: cell-based.

The target in assay [1] is T2, Toll-like receptor 9 (Homo sapiens) (UniProt Q9NR96).
T2 sequence (whole entry): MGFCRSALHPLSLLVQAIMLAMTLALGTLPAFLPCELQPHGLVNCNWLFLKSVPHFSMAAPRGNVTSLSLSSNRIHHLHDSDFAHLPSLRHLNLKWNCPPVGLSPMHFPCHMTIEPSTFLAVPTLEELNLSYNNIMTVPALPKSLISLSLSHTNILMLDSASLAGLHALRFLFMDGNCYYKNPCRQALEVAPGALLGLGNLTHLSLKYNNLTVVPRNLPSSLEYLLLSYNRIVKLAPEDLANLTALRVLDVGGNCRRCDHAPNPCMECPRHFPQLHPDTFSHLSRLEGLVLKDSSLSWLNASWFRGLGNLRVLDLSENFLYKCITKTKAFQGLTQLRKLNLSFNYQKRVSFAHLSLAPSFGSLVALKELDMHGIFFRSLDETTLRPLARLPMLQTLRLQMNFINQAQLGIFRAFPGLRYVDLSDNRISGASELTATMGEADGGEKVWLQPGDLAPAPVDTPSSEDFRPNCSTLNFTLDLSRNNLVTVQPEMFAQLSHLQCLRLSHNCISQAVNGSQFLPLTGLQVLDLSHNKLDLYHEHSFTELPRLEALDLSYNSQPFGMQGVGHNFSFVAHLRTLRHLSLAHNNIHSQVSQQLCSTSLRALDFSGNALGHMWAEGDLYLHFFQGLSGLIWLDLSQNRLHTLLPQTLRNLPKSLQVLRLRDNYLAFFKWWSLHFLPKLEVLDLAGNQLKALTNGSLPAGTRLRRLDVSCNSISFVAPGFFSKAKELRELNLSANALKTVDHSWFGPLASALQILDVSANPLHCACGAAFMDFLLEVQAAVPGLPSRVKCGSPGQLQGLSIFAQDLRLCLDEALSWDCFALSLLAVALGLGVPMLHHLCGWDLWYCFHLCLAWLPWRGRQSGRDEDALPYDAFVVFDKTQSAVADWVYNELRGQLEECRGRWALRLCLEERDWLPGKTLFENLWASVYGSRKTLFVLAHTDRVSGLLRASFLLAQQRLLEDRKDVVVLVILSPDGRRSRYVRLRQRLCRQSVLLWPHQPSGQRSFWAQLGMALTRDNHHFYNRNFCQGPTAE
Nature of the assay: Agonist activity at TLR9 (unknown origin) expressed in human HEK cells upto 50 uM by luciferase reporter assay. Format: cell-based. (In general: In a reporter assay the amount or activity of a reporter protein is the signal.)

As a reminder, the EC50 is the concentration at which the effect is half-maximal.

In the case of `CCC[C@H](C)Oc1nc(N)c2[nH]c(=O)n(CCCCCN3CCCCC3)c2n1` [GSK-2245035], at Toll-like receptor 7, the EC50 is 1260 nM. Besides, the result in assay [1] was inactive.
